Results reported in patent US8513251B2, “Pyridazinone compounds” (Takeda Pharmaceutical Company Limited, priority 2009, dated 2013).
Read-outs that look alike come from different tables or passages of the source.

Legend:
Human PDE10A enzyme = target: T1, Human PDE10A enzyme (Homo sapiens, UniProt Q9Y233); assay: PDE enzyme inhibition, SPA (Scintillation Proximity Assay); format: biochemical; details: for inhibition at 1 µM: compound at 1 μM, read-out: Percent inhibition (1 μM); for IC50: human PDE10A, [3H]cGMP substrate
T1 construct: Human PDE10A enzyme was generated from Sf9 or COS-7 cells transfected with the full-length gene; His-tag; made in house; host or cells: Sf9 or COS-7 cells
T1 sequence (Q9Y233 267-1055): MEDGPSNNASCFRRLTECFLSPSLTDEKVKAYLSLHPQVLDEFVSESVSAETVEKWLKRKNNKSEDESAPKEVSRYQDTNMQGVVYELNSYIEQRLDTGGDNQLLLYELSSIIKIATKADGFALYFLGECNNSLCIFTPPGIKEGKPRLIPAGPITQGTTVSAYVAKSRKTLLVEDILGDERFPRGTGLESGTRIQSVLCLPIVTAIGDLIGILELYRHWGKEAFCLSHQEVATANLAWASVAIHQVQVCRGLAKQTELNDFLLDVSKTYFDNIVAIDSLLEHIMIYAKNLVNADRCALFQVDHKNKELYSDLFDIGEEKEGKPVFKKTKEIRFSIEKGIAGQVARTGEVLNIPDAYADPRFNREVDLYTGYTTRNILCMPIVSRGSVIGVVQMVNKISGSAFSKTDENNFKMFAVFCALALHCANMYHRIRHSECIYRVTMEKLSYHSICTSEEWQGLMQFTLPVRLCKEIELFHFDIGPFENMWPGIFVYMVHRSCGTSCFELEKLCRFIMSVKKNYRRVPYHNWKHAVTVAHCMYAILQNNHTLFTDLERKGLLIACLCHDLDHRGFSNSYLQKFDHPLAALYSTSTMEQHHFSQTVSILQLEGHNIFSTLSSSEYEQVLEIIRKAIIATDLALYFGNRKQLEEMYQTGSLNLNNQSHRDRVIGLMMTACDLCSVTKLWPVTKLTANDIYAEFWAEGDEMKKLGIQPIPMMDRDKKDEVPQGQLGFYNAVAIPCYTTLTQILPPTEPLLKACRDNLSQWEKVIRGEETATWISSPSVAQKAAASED
Procedure: Human PDE10A enzyme was generated from Sf9 or COS-7 cells transfected with the full-length gene. Cloned enzyme was extracted from homogenized cell pellets. The extracted enzyme from Sf9 cells was partially purified using His-tag affinity column. The enzyme was stored at −70° C. until use. PDE activity was measured using a SPA (Scintillation Proximity Assay) (GE Healthcare). To evaluate the inhibitory activity, 10 μL of serial diluted compounds were incubated with 20 μL of PDE enzyme in assay buffer (50 mM HEPES-NaOH, 8.3 mM MgCl2, 1.7 mM EGTA, 0.1% BSA (pH 7.4)) for 30 min. at room temperature. Final concentration of DMSO in the assay was 1 percent as compounds were tested in duplicate in 96-well half-area plates (Corning). To start the reaction, 10 μL of substrate [3H] cGMP (25 or 50 nM; enclosed in SPA kits from GE Healthcare or purchased from PerkinElmer, respectively) was added for a final assay volume of 40 μL. After 60 min incubation at room temperature, yttrium SPA beads containing Zinc sulphate were added (20 μL at 6 mg/mL) to terminate the PDE reaction. After being settled for 60 min., assay plates were counted in a scintillation counter (PerkinElmer) to allow calculation of inhibition rate and IC50. Inhibition rate was calculated on the basis of 0% control wells with DMSO and 100% control wells without enzyme.

Male ICR mice = assay: Improvement of MK-801-induced prepulse inhibition (PPI) deficits; format: in vivo; details: 82 dB prepulse; i.p. 30 min before testing; MK-801 0.3 mg/kg s.c. (FIG. 3)
From the text: Male ICR mice were supplied by CLEA Japan, Inc (Japan). After arrival to the vivarium, animals were allowed a minimum of 1 week for acclimation. They were housed under a 12:12-h light/dark cycle in a temperature- and humidity-controlled laboratory and allowed food and water ad libitum. The care and use of the animals and the experimental protocols used in this research were approved by the Experimental Animal Care and Use Committee of Takeda Pharmaceutical Company, Ltd (Osaka, Japan).
The compounds were suspended in 0.5% methylcellulose in saline or distilled water, and administered by intraperitoneally (i.p.) or orally (p.o.), respectively. Methamphetamine (Dainippon Sumitomo Pharma Co., Ltd.) and MK-801 (Sigma-Aldrich, St Louis, Mo.) were dissolved in saline, and administered subcutaneously (s.c.). […]
PPI is a measure of sensorimotor gating and is one of a few neuropsychological measures in which humans and rodents can be evaluated in a similar fashion (Psychopharmacology (Berl) 2001, vol. 156: 117-154). We evaluated whether compound could reverse PPI deficits induced by MK-801 using male ICR mice. […] Placement of mice inside the cylinders allowed the whole-body startle responses induced by the acoustic stimuli to be measured via the transduction of movement into analog signals by a piezoelectric unit attached to the platform. […]

[1] = Table 1, compound at 0.1 μM as noted in cell, read-out: Percent inhibition (at 0.1 μM)

Q: With O=c1ccn(-c2cccc(C(F)(F)F)c2)nc1-c1ccnn1-c1ccccc1 [Example 10, 3-(1-Phenyl-1H-pyrazol-5-yl)-1-[3-(trifluoromethyl)phenyl]pyridazin-4(1H)-one] as the molecule, how does the inhibition at 1 µM (Human PDE10A enzyme; Table 1) read?
A: The inhibition at 1 µM was 98%.

Q: What about the IC50 (Human PDE10A enzyme; Table 1) of the same molecule?
A: The IC50 was 10 to 200 nM.

Q: What about the melting point of the same molecule?
A: The melting point was 156 to 157 °C.

Q: What does the source list for COc1ccccc1-n1ccc(=O)c(-c2ccnn2-c2ccccc2)n1 [Example 13, 1-(2-Methoxyphenyl)-3-(1-phenyl-1H-pyrazol-5-yl)pyridazin-4(1H)-one]?
A: inhibition at 1 µM (Human PDE10A enzyme; Table 1): 96%; IC50 (Human PDE10A enzyme; Table 1): 10 to 200 nM; melting point: 153 to 154 °C

Q: Which inhibition at 1 µM (Human PDE10A enzyme; Table 1) does the source give for O=c1ccn(-c2cccc(F)c2)nc1-c1ccnn1-c1ccccc1 [Example 15, 1-(3-Fluorophenyl)-3-(1-phenyl-1H-pyrazol-5-yl)pyridazin-4(1H)-one] here?
A: Its inhibition at 1 µM is 97%.

Q: What about the IC50 (Human PDE10A enzyme; Table 1) of the same molecule?
A: The IC50 was 10 to 200 nM.

Q: And the melting point?
A: The melting point was 170 to 171 °C.

Q: What does the source list for O=c1ccn(-c2ccccc2F)nc1-c1ccnn1-c1ccccc1 [Example 16, 1-(2-Fluorophenyl)-3-(1-phenyl-1H-pyrazol-5-yl)pyridazin-4(1H)-one]?
A: inhibition at 1 µM (Human PDE10A enzyme; Table 1): 97%; IC50 (Human PDE10A enzyme; Table 1): 10 to 200 nM; melting point: 124 to 125 °C

Q: For O=c1ccn(-c2ccc(F)cc2)nc1-c1ccnn1-c1ccccc1 [Example 17, 1-(4-Fluorophenyl)-3-(1-phenyl-1H-pyrazol-5-yl)pyridazin-4(1H)-one], which inhibition at 1 µM (Human PDE10A enzyme; Table 1) is on record?
A: The inhibition at 1 µM was 97%.

Q: And the IC50 (Human PDE10A enzyme; Table 1)?
A: Its IC50 is 10 to 200 nM.

Q: And the melting point?
A: Its melting point is 252 to 253 °C.

Q: With O=c1ccn(-c2ccc(N3CCOCC3)cc2)nc1-c1ccnn1-c1ccccc1 [Example 23, 1-(4-Morpholin-4-ylphenyl)-3-(1-phenyl-1H-pyrazol-5-yl)pyridazin-4(1H)-one] as the molecule, how does the inhibition at 1 µM (Human PDE10A enzyme; Table 1) read?
A: Its inhibition at 1 µM is 102%.

Q: And the IC50 (Human PDE10A enzyme; Table 1)?
A: The IC50 was less than 10 nM.

Q: And the melting point?
A: Its melting point is 205 to 206 °C.

Q: What does the source list for O=c1ccn(-c2ccccc2OC(F)F)nc1-c1ccnn1-c1ccccc1 [Example 26, 1-[2-(Difluoromethoxy)phenyl]-3-(1-phenyl-1H-pyrazol-5-yl)pyridazin-4(1H)-one]?
A: inhibition at 1 µM (Human PDE10A enzyme; Table 1): 97%; IC50 (Human PDE10A enzyme; Table 1): 10 to 200 nM; melting point: 123 to 124 °C

Q: With O=c1ccn(-c2cccnc2)nc1-c1ccnn1-c1ccccc1 [Example 30, 3-(1-Phenyl-1H-pyrazol-5-yl)-1-pyridin-3-ylpyridazin-4(1H)-one] as the molecule, how does the inhibition at 0.1 µM (Human PDE10A enzyme; [1]) read?
A: Its inhibition at 0.1 µM is 87%.

Q: What about the IC50 (Human PDE10A enzyme; Table 1) of the same molecule?
A: The IC50 was 10 to 200 nM.

Q: And the melting point?
A: Its melting point is 176 to 177 °C.

Q: What does the source list for O=c1ccn(-c2ccccc2Cl)nc1-c1ccnn1-c1ccccc1 [Example 32, 1-(2-Chlorophenyl)-3-(1-phenyl-1H-pyrazol-5-yl)pyridazin-4(1H)-one]?
A: inhibition at 1 µM (Human PDE10A enzyme; Table 1): 89%; IC50 (Human PDE10A enzyme; Table 1): 10 to 200 nM; melting point: 138 to 139 °C

Q: What does the source list for CS(=O)(=O)c1cccc(-n2ccc(=O)c(-c3ccnn3-c3ccccc3)n2)c1 [Example 36, 1-[3-(Methylsulfonyl)phenyl]-3-(1-phenyl-1H-pyrazol-5-yl)pyridazin-4(1H)-one]?
A: inhibition at 0.1 µM (Human PDE10A enzyme; [1]): 90%; IC50 (Human PDE10A enzyme; Table 1): < 10 nM; melting point: 199 to 200 °C

Q: Which results are given for O=c1ccn(-c2cccc(S(=O)(=O)c3nc4ccccc4[nH]3)c2)nc1-c1ccnn1-c1ccccc1 [Example 39, 1-[3-(1H-Benzimidazol-2-ylsulfonyl)phenyl]-3-(1-phenyl-1H-pyrazol-5-yl)pyridazin-4(1H)-one]?
A: inhibition at 1 µM (Human PDE10A enzyme; Table 1): 98%; IC50 (Human PDE10A enzyme; Table 1): < 10 nM; melting point: 160 to 161 °C

Q: Which results are given for COc1cn(-c2ccccc2F)nc(-c2ccnn2-c2ccccc2)c1=O [Example 52, 1-(2-Fluorophenyl)-5-methoxy-3-(1-phenyl-1H-pyrazol-5-yl)pyridazin-4(1H)-one]?
A: inhibition at 1 µM (Human PDE10A enzyme; Table 1): 99%; IC50 (Human PDE10A enzyme; Table 1): < 10 nM; melting point: 163 to 165 °C

Q: Which results are given for COc1cn(-c2cccc(C(F)(F)F)c2)nc(-c2ccnn2-c2ccccc2)c1=O [Example 54, 5-Methoxy-3-(1-phenyl-1H-pyrazol-5-yl)-1-[3-(trifluoromethyl)phenyl]pyridazin-4(1H)-one]?
A: inhibition at 1 µM (Human PDE10A enzyme; Table 1): 100%; IC50 (Human PDE10A enzyme; Table 1): < 10 nM; melting point: 139 to 141 °C

Q: Which inhibition at 1 µM (Human PDE10A enzyme; Table 1) does the source give for COc1cn(-c2ccc(N3CCOCC3)cc2F)nc(-c2ccnn2-c2ccccc2)c1=O [Example 57, 1-(2-Fluoro-4-morpholin-4-ylphenyl)-5-methoxy-3-(1-phenyl-1H-pyrazol-5-yl)pyridazin-4(1H)-one] here?
A: The inhibition at 1 µM was 101%.

Q: And the IC50 (Human PDE10A enzyme; Table 1)?
A: The IC50 was less than 10 nM.

Q: What about the melting point of the same molecule?
A: The melting point was 226 to 228 °C.

Q: For O=c1c(OC(F)F)cn(-c2ccccc2F)nc1-c1ccnn1-c1ccccc1 [Example 64, 5-(Difluoromethoxy)-1-(2-fluorophenyl)-3-(1-phenyl-1H-pyrazol-5-yl)pyridazin-4(1H)-one], which inhibition at 1 µM (Human PDE10A enzyme; Table 1) is on record?
A: Its inhibition at 1 µM is 94%.

Q: What about the IC50 (Human PDE10A enzyme; Table 1) of the same molecule?
A: The IC50 was 10 to 200 nM.

Q: What about the melting point of the same molecule?
A: Its melting point is 109 to 114 °C.

Q: Which results are given for COc1cn(-c2ccc(N3CCC3=O)cc2F)nc(-c2ccnn2-c2ccccc2)c1=O [Example 107, 1-[2-Fluoro-4-(2-oxoazetidin-1-yl)phenyl]-5-methoxy-3-(1-phenyl-1H-pyrazol-5-yl)pyridazin-4(1H)-one]?
A: inhibition at 0.1 µM (Human PDE10A enzyme; Table 2, compound at 0.1 μM, read-out: Percent inhibition (0.1 μM)): 104%; IC50 (Human PDE10A enzyme; Table 2): < 10 nM; melting point: 189 to 194 °C

Q: For Cc1nc2n(c(=O)c1CCN1CCC(c3noc4cc(F)ccc34)CC1)CCCC2 [Risperidone], which “MK-801-induced PPI deficits” value (Male ICR mice) is on record?
A: The value was “significantly reversed”.
